The source made the active and inactive calls.
Key:
Type in all cases: functional, cell-based
[1] = system: BV-2; test: Anti-inflammartory activity against LPS-activated […] cells assessed as reduction in IL-6 levels at 50 uM pretreated with compound for 1 hr followed by co-incubation with LPS for 24 hrs by ELISA; conditions: Mus musculus, time 25.0 hrs
[2] = system: BV-2; test: Anti-inflammatory activity in […] cells assessed as inhibition of LPS-induced NO production at 50 uM pretreated with compound for 1 hr followed by coincubation with LPS for 24 hrs by Griess reagent based analysis; conditions: Mus musculus, time 25.0 hrs
[3] = system: BV-2; test: Anti-inflammartory activity against LPS-activated […] cells assessed as reduction in TNF-alpha levels at 50 uM pretreated with compound for 1 hr followed by co-incubation with LPS for 24 hrs by ELISA; conditions: Mus musculus, time 25.0 hrs
[4] = system: RAW264.7; test: Anti-inflammartory activity in mouse RAW264.7 cells assessed as inhibition of LPS-induced NO production at 50 uM pretreated with compound for 1 hr followed by incubation with LPS for 12 hrs by Griess reagent based analysis; conditions: time 13.0 hrs
[5] = system: RAW264.7; test: Anti-inflammartory activity against LPS-activated mouse RAW264.7 cells assessed as reduction in IL-6 levels at 50 uM pretreated with compound for 1 hr followed by incubation with LPS for 12 hrs by ELISA; conditions: time 13.0 hrs
[6] = system: RAW264.7; test: Anti-inflammartory activity against LPS-activated mouse RAW264.7 cells assessed as reduction in TNF-alpha levels at 50 uM pretreated with compound for 1 hr followed by incubation with LPS for 12 hrs by ELISA; conditions: time 13.0 hrs

Measured: Activity

CN(C)c1ccc(O)c2c1C[C@H]1C[C@H]3[C@H](N(C)C)C(O)=C(C(N)=O)C(=O)[C@@]3(O)C(O)=C1C2=O
active: [1] | [2] | [3]

C[C@@H]1C[C@H]2[C@@H]3CCC4=CC(=O)C=C[C@]4(C)[C@@]3(F)[C@@H](O)C[C@]2(C)[C@@]1(O)C(=O)CO
active: [4] | [5] | [6]

— ChEMBL document CHEMBL5120901, “Batatasin III, a Constituent of Dendrobium scabrilingue, Improves Murine Pain-like Behaviors with a Favorable CNS Safety Profile” (J Nat Prod, 2022)
